Where two headings read alike, the source gives them in different places. Marks after values point to notes of the source that are not given here. Each block holds one compound with its values, some of them ahead of it.
Assays:
[1] = test system: PC-3 PIP/flu tumor-bearing mice; details: Ln-PSMA-617; for Tissue uptake: Blood / Tissue uptake: Bone / Tissue uptake: Heart / Tissue uptake: Intestines / Tissue uptake: Kidneys / Tissue uptake: Liver / Tissue uptake: Lung / Tissue uptake: Muscle / Tissue uptake: Salivary glands / Tissue uptake: Spleen / Tissue uptake: Stomach: PC-3 PIP/flu tumor-bearing mice; for Tissue uptake: PC-3 flu tumor: PSMA-negative xenograft; for Tissue uptake: PC-3 PIP tumor: PSMA-positive xenograft; for PC-3 PIP tumor-to-background organ ratios: Tumor-to-blood / PC-3 PIP tumor-to-background organ ratios: Tumor-to-liver: estimated ratios (organ <0.5% ID/g)
[2] = test system: non-tumor-bearing immunocompetent FVB mice; assay: Biodistribution of lanthanide chloride salts LnCl3 (multiplexed ICP-MS); type: in vivo; details: for Tissue uptake: Blood / Tissue uptake: Bone / Tissue uptake: Brain / Tissue uptake: Heart / Tissue uptake: Intestines / Tissue uptake: Kidneys / Tissue uptake: Liver / Tissue uptake: Lung / Tissue uptake: Muscle / Tissue uptake: Pancreas / Tissue uptake: Salivary glands / Tissue uptake: Spleen / Tissue uptake: Stomach: non-tumor-bearing mice
[3] = 24 h p.i., estimated ratios (organ <0.5% ID/g)
[4] = 96 h p.i., estimated ratios (organ <0.5% ID/g)

Compound: O=C([O-])CN1CCN(CC(=O)[O-])CCN(CC(=O)NC[C@H]2CC[C@H](C(=O)N[C@@H](Cc3ccc4ccccc4c3)C(=O)NCCCC[C@H](NC(=O)N[C@@H](CCC(=O)O)C(=O)O)C(=O)O)CC2)CCN(CC(=O)[O-])CC1.[153Eu+3] [[^153Eu]Eu-PSMA-617]
PC-3 PIP tumor-to-background organ ratios: Tumor-to-kidney ([1]; 1 h p.i.): 3.3 ± 1.1
Tissue uptake: Blood ([1]; 1 h p.i.): <0.5 % ID/g
Tissue uptake: Bone ([1]; 1 h p.i.): <0.5 % ID/g
Tissue uptake: Heart ([1]; 1 h p.i.): 0.52 ± 0.42 % ID/g
Tissue uptake: Intestines ([1]; 1 h p.i.): <0.5 % ID/g
Tissue uptake: Kidneys ([1]; 1 h p.i.): 8.1 ± 3.5 % ID/g
Tissue uptake: Liver ([1]; 1 h p.i.): <0.5 % ID/g
Tissue uptake: Lung ([1]; 1 h p.i.): <0.5 % ID/g
Tissue uptake: Muscle ([1]; 1 h p.i.): <0.5 % ID/g
Tissue uptake: Salivary glands ([1]; 1 h p.i.): <0.5 % ID/g
Tissue uptake: Spleen ([1]; 1 h p.i.): 0.51 ± 0.17 % ID/g
Tissue uptake: Stomach ([1]; 1 h p.i.): <0.5 % ID/g
Tissue uptake: PC-3 flu tumor ([1]; 1 h p.i.): <0.5 % ID/g
Tissue uptake: PC-3 PIP tumor ([1]; 1 h p.i.): 24 ± 3 % ID/g
PC-3 PIP tumor-to-background organ ratios: Tumor-to-blood ([1]; 1 h p.i.): >50^*
PC-3 PIP tumor-to-background organ ratios: Tumor-to-liver ([1]; 1 h p.i.): >50^*
PC-3 PIP tumor-to-background organ ratios: Tumor-to-kidney ([1]; 4 h p.i.): 23 ± 3
Tissue uptake: Blood ([1]; 4 h p.i.): <0.5 % ID/g
Tissue uptake: Bone ([1]; 4 h p.i.): <0.5 % ID/g
Tissue uptake: Heart ([1]; 4 h p.i.): <0.5 % ID/g
Tissue uptake: Intestines ([1]; 4 h p.i.): <0.5 % ID/g
Tissue uptake: Kidneys ([1]; 4 h p.i.): 1.1 ± 0.3 % ID/g
Tissue uptake: Liver ([1]; 4 h p.i.): <0.5 % ID/g
Tissue uptake: Lung ([1]; 4 h p.i.): <0.5 % ID/g
Tissue uptake: Muscle ([1]; 4 h p.i.): <0.5 % ID/g
Tissue uptake: Salivary glands ([1]; 4 h p.i.): <0.5 % ID/g
Tissue uptake: Spleen ([1]; 4 h p.i.): <0.5 % ID/g
Tissue uptake: Stomach ([1]; 4 h p.i.): <0.5 % ID/g
Tissue uptake: PC-3 flu tumor ([1]; 4 h p.i.): <0.5 % ID/g
Tissue uptake: PC-3 PIP tumor ([1]; 4 h p.i.): 23 ± 3 % ID/g
PC-3 PIP tumor-to-background organ ratios: Tumor-to-blood ([1]; 4 h p.i.): >46^*
PC-3 PIP tumor-to-background organ ratios: Tumor-to-liver ([1]; 4 h p.i.): >46^*

Compound: O=C([O-])CN1CCN(CC(=O)[O-])CCN(CC(=O)NCC2CCC(C(=O)NC(Cc3ccc4ccccc4c3)C(=O)NCCCCC(NC(=O)NC(CCC(=O)O)C(=O)O)C(=O)O)CC2)CCN(CC(=O)[O-])CC1.[Tb+3] (stereo not shown) [[^159Tb]Tb-PSMA-617]
PC-3 PIP tumor-to-background organ ratios: Tumor-to-kidney ([1]; 1 h p.i.): 3.3 ± 1.0
Tissue uptake: Blood ([1]; 1 h p.i.): <0.5 % ID/g
Tissue uptake: Bone ([1]; 1 h p.i.): <0.5 % ID/g
Tissue uptake: Heart ([1]; 1 h p.i.): <0.5 % ID/g
Tissue uptake: Intestines ([1]; 1 h p.i.): <0.5 % ID/g
Tissue uptake: Kidneys ([1]; 1 h p.i.): 8.4 ± 3.5 % ID/g
Tissue uptake: Liver ([1]; 1 h p.i.): <0.5 % ID/g
Tissue uptake: Lung ([1]; 1 h p.i.): <0.5 % ID/g
Tissue uptake: Muscle ([1]; 1 h p.i.): <0.5 % ID/g
Tissue uptake: Salivary glands ([1]; 1 h p.i.): <0.5 % ID/g
Tissue uptake: Spleen ([1]; 1 h p.i.): <0.5 % ID/g
Tissue uptake: Stomach ([1]; 1 h p.i.): <0.5 % ID/g
Tissue uptake: PC-3 flu tumor ([1]; 1 h p.i.): <0.5 % ID/g
Tissue uptake: PC-3 PIP tumor ([1]; 1 h p.i.): 25 ± 3 % ID/g
PC-3 PIP tumor-to-background organ ratios: Tumor-to-blood ([1]; 1 h p.i.): >51^*
PC-3 PIP tumor-to-background organ ratios: Tumor-to-liver ([1]; 1 h p.i.): >51^*
PC-3 PIP tumor-to-background organ ratios: Tumor-to-kidney ([1]; 4 h p.i.): 24 ± 3
Tissue uptake: Blood ([1]; 4 h p.i.): <0.5 % ID/g
Tissue uptake: Bone ([1]; 4 h p.i.): <0.5 % ID/g
Tissue uptake: Heart ([1]; 4 h p.i.): <0.5 % ID/g
Tissue uptake: Intestines ([1]; 4 h p.i.): <0.5 % ID/g
Tissue uptake: Kidneys ([1]; 4 h p.i.): 1.0 ± 0.2 % ID/g
Tissue uptake: Liver ([1]; 4 h p.i.): <0.5 % ID/g
Tissue uptake: Lung ([1]; 4 h p.i.): <0.5 % ID/g
Tissue uptake: Muscle ([1]; 4 h p.i.): <0.5 % ID/g
Tissue uptake: Salivary glands ([1]; 4 h p.i.): <0.5 % ID/g
Tissue uptake: Spleen ([1]; 4 h p.i.): <0.5 % ID/g
Tissue uptake: Stomach ([1]; 4 h p.i.): <0.5 % ID/g
Tissue uptake: PC-3 flu tumor ([1]; 4 h p.i.): <0.5 % ID/g
Tissue uptake: PC-3 PIP tumor ([1]; 4 h p.i.): 23 ± 3 % ID/g
PC-3 PIP tumor-to-background organ ratios: Tumor-to-blood ([1]; 4 h p.i.): >46^*
PC-3 PIP tumor-to-background organ ratios: Tumor-to-liver ([1]; 4 h p.i.): >46^*

Compound: O=C([O-])CN1CCN(CC(=O)[O-])CCN(CC(=O)NCC2CCC(C(=O)NC(Cc3ccc4ccccc4c3)C(=O)NCCCCC(NC(=O)NC(CCC(=O)O)C(=O)O)C(=O)O)CC2)CCN(CC(=O)[O-])CC1.[Lu+3] (stereo not shown) [[^175Lu]Lu-PSMA-617]
PC-3 PIP tumor-to-background organ ratios: Tumor-to-kidney ([1]; 1 h p.i.): 2.7 ± 0.8
Tissue uptake: Blood ([1]; 1 h p.i.): <0.5 % ID/g
Tissue uptake: Bone ([1]; 1 h p.i.): <0.5 % ID/g
Tissue uptake: Heart ([1]; 1 h p.i.): <0.5 % ID/g
Tissue uptake: Intestines ([1]; 1 h p.i.): <0.5 % ID/g
Tissue uptake: Kidneys ([1]; 1 h p.i.): 10 ± 4 % ID/g
Tissue uptake: Liver ([1]; 1 h p.i.): <0.5 % ID/g
Tissue uptake: Lung ([1]; 1 h p.i.): <0.5 % ID/g
Tissue uptake: Muscle ([1]; 1 h p.i.): <0.5 % ID/g
Tissue uptake: Salivary glands ([1]; 1 h p.i.): <0.5 % ID/g
Tissue uptake: Spleen ([1]; 1 h p.i.): 0.64 ± 0.48 % ID/g
Tissue uptake: Stomach ([1]; 1 h p.i.): 0.56 ± 0.19 % ID/g
Tissue uptake: PC-3 flu tumor ([1]; 1 h p.i.): <0.5 % ID/g
Tissue uptake: PC-3 PIP tumor ([1]; 1 h p.i.): 25 ± 3 % ID/g
PC-3 PIP tumor-to-background organ ratios: Tumor-to-blood ([1]; 1 h p.i.): >51^*
PC-3 PIP tumor-to-background organ ratios: Tumor-to-liver ([1]; 1 h p.i.): >51^*
PC-3 PIP tumor-to-background organ ratios: Tumor-to-kidney ([1]; 4 h p.i.): 18 ± 3
Tissue uptake: Blood ([1]; 4 h p.i.): <0.5 % ID/g
Tissue uptake: Bone ([1]; 4 h p.i.): <0.5 % ID/g
Tissue uptake: Heart ([1]; 4 h p.i.): <0.5 % ID/g
Tissue uptake: Intestines ([1]; 4 h p.i.): <0.5 % ID/g
Tissue uptake: Kidneys ([1]; 4 h p.i.): 1.4 ± 0.4 % ID/g
Tissue uptake: Liver ([1]; 4 h p.i.): <0.5 % ID/g
Tissue uptake: Lung ([1]; 4 h p.i.): <0.5 % ID/g
Tissue uptake: Muscle ([1]; 4 h p.i.): <0.5 % ID/g
Tissue uptake: Salivary glands ([1]; 4 h p.i.): <0.5 % ID/g
Tissue uptake: Spleen ([1]; 4 h p.i.): <0.5 % ID/g
Tissue uptake: Stomach ([1]; 4 h p.i.): <0.5 % ID/g
Tissue uptake: PC-3 flu tumor ([1]; 4 h p.i.): <0.5 % ID/g
Tissue uptake: PC-3 PIP tumor ([1]; 4 h p.i.): 23 ± 3 % ID/g
PC-3 PIP tumor-to-background organ ratios: Tumor-to-blood ([1]; 4 h p.i.): >47^*
PC-3 PIP tumor-to-background organ ratios: Tumor-to-liver ([1]; 4 h p.i.): >47^*

Organ ratios: Blood-to-bone ([2]; 1 h p.i.): 0.38 ± 0.23
Organ ratios: Blood-to-liver ([2]; 1 h p.i.): 0.61 ± 0.35
Organ ratios: Liver-to-bone ([2]; 1 h p.i.): 0.64 ± 0.13
Tissue uptake: Blood ([2]; 1 h p.i.): 6.4 ± 2.7 % ID/g
Tissue uptake: Bone ([2]; 1 h p.i.): 18 ± 3 % ID/g
Tissue uptake: Brain ([2]; 1 h p.i.): <0.5 % ID/g
Tissue uptake: Heart ([2]; 1 h p.i.): 3.6 ± 1.5 % ID/g
Tissue uptake: Intestines ([2]; 1 h p.i.): 3.2 ± 1.1 % ID/g
Tissue uptake: Kidneys ([2]; 1 h p.i.): 7.3 ± 1.7 % ID/g
Tissue uptake: Liver ([2]; 1 h p.i.): 11 ± 3 % ID/g
Tissue uptake: Lung ([2]; 1 h p.i.): 5.6 ± 2.2 % ID/g
Tissue uptake: Muscle ([2]; 1 h p.i.): 1.5 ± 0.6 % ID/g
Tissue uptake: Pancreas ([2]; 1 h p.i.): 2.6 ± 0.8 % ID/g
Tissue uptake: Salivary glands ([2]; 1 h p.i.): 2.6 ± 0.9 % ID/g
Tissue uptake: Spleen ([2]; 1 h p.i.): 3.8 ± 0.5 % ID/g
Tissue uptake: Stomach ([2]; 1 h p.i.): 5.8 ± 2.1 % ID/g
Organ ratios: Liver-to-bone ([2]; 24 h p.i.): 0.49 ± 0.19
Organ ratios: Blood-to-bone [2, 3]: <0.02^*
Organ ratios: Blood-to-liver [2, 3]: <0.05^*
Tissue uptake: Blood ([2]; 24 h p.i.): <0.5 % ID/g
Tissue uptake: Bone ([2]; 24 h p.i.): 25 ± 5 % ID/g
Tissue uptake: Brain ([2]; 24 h p.i.): <0.5 % ID/g
Tissue uptake: Heart ([2]; 24 h p.i.): 0.54 ± 0.06 % ID/g
Tissue uptake: Intestines ([2]; 24 h p.i.): 0.61 ± 0.02 % ID/g
Tissue uptake: Kidneys ([2]; 24 h p.i.): 3.7 ± 1.0 % ID/g
Tissue uptake: Lung ([2]; 24 h p.i.): 0.88 ± 0.13 % ID/g
Tissue uptake: Muscle ([2]; 24 h p.i.): <0.5 % ID/g
Tissue uptake: Pancreas ([2]; 24 h p.i.): <0.5 % ID/g
Tissue uptake: Salivary glands ([2]; 24 h p.i.): 0.55 ± 0.17 % ID/g
Tissue uptake: Spleen ([2]; 24 h p.i.): 3.5 ± 0.9 % ID/g
Tissue uptake: Stomach ([2]; 24 h p.i.): 1.8 ± 0.3 % ID/g
Tissue uptake: Liver ([2]; 24 h p.i., listed as lutetium): 12 ± 3 % ID/g
Tissue uptake: Liver ([2]; 24 h p.i., listed as natLu): ~ 12 % ID/g
Organ ratios: Liver-to-bone ([2]; 96 h p.i.): 0.14 ± 0.04
Organ ratios: Blood-to-bone [2, 4]: <0.01^*
Organ ratios: Blood-to-liver [2, 4]: <0.11^*
Tissue uptake: Blood ([2]; 96 h p.i.): <0.5 % ID/g
Tissue uptake: Bone ([2]; 96 h p.i.): 35 ± 4 % ID/g
Tissue uptake: Brain ([2]; 96 h p.i.): <0.5 % ID/g
Tissue uptake: Heart ([2]; 96 h p.i.): 0.89 ± 0.25 % ID/g
Tissue uptake: Intestines ([2]; 96 h p.i.): 0.54 ± 0.14 % ID/g
Tissue uptake: Kidneys ([2]; 96 h p.i.): 2.7 ± 0.2 % ID/g
Tissue uptake: Liver ([2]; 96 h p.i.): 4.8 ± 0.9 % ID/g
Tissue uptake: Lung ([2]; 96 h p.i.): 1.1 ± 0.2 % ID/g
Tissue uptake: Muscle ([2]; 96 h p.i.): <0.5 % ID/g
Tissue uptake: Pancreas ([2]; 96 h p.i.): <0.5 % ID/g
Tissue uptake: Salivary glands ([2]; 96 h p.i.): 0.50 ± 0.06 % ID/g
Tissue uptake: Spleen ([2]; 96 h p.i.): 2.3 ± 0.2 % ID/g
Tissue uptake: Stomach ([2]; 96 h p.i.): 2.5 ± 0.2 % ID/g
Compound: [Cl][Lu]([Cl])[Cl] [[^175Lu]LuCl3]

Reference: paper PMC11839852, “Preclinical comparison of (radio)lanthanides using mass spectrometry and nuclear imaging techniques: biodistribution of lanthanide-based tumor-targeting agents and lanthanides in ionic form” (European Journal of Nuclear Medicine and Molecular Imaging, 2024)
